Values of other authors in patent US20080161587A1, “Crystallization method for purification of calcipotriene” (Teva Pharmaceuticals USA, Inc., priority 2002, published 2008).

For C=C1/C(=C\C=C2/CCC[C@]3(C)[C@@H]([C@H](C)/C=C/[C@@H](O)C4CC4)CC[C@@H]23)C[C@@H](O)C[C@@H]1O [calcipotriene, (5Z, 7E, 22E, 24S)-24-cyclopropyl-9,10-secochola-5,7,10(19), 22-tetraene-1α, 3β, 24-triol], the “solubility in highly apolar solvents” value (highly a polar solvents (e.g. hydrocarbons)) is given as “essentially insoluble”, the “solubility in alcoholic solvents” value (methanol, ethanol, and isopropanol (IPA)) is given as “highly soluble” and the “solubility of calcipotriene in methyl formate” value (solvent methyl formate) is given as “about 1 g calcipotriene/150 mL of methyl formate”.
